Reference: patent US4097595A, “7-Amino-thiazolyl acetamido cephalosporanic acids” (Roussel Uclaf, priority 1976, dated 1978)
≈ marks a conversion by molar mass, not a printed value. Read-outs that look alike come from different tables or passages of the source.

Assays:
[1] = tested on: Streptococcus faecalis 5 432; assay: MIC, dilution method in liquid media, Streptococcus faecalis 5 432; assay type: cell-based
Experimental: (§1) A series of tubes were prepared with the same quantity of sterile nutrive media and increasing quantities of the test product was distributed to each tube. Then, each tube was seeded with a bacterial strain and after incubation at 37° C for 24 or 48 hours, the inhibition of the growth was determined by transillumination which permitted determination of the minimum inhibitory concentrations (M.I.C.) in μg/ml.

[2] = tested on: Proteus mirabilis (indol); assay: MIC, dilution method in liquid media, Proteus mirabilis (indol); assay type: cell-based
Experimental: as §1

[3] = tested on: Streptococcus pyogenes A 561; assay: MIC, dilution method in liquid media, Streptococcus pyogenes A 561; assay type: cell-based
Experimental: as §1

[4] = tested on: Escherichia Coli UC 1 020; assay: MIC, dilution method in liquid media, Escherichia Coli UC 1 020; assay type: cell-based
Experimental: as §1

[5] = tested on: Staphylococcus aureus 54 146; assay: MIC, dilution method in liquid media, Staphylococcus aureus 54 146; assay type: cell-based; conditions: read-out: MIC
Experimental: as §1

[6] = tested on: Escherichia Coli UC 1 261; assay: MIC, dilution method in liquid media, Escherichia Coli UC 1 261; assay type: cell-based
Experimental: as §1

[7] = tested on: Staphylococcus aureus UC 1128 (penicillin resistant); assay: MIC, dilution method in liquid media, Staphylococcus aureus UC 1128, penicillin resistant; assay type: cell-based
Experimental: as §1

[8] = tested on: Escherichia Coli R 55 123 D; assay: MIC, dilution method in liquid media, Escherichia Coli R 55 123 D; assay type: cell-based; conditions: COLIR55123D
Experimental: as §1

Salmonella Typhimurium = assay: MIC, dilution method in liquid media, Salmonella Typhimurium; assay type: cell-based; conditions: Salmonella enterica, strain 420 (Tables II, IV)
Experimental: as §1

[9] = tested on: Staphylococcus aureus UC 1 061 (penicillin sensible); assay: MIC, dilution method in liquid media, Staphylococcus aureus UC 1061, penicillin sensible; assay type: cell-based
Experimental: as §1

[10] = tested on: Klebsiella pneumoniae 52 145; assay: MIC, dilution method in liquid media, Klebsiella pneumoniae 52 145; assay type: cell-based; conditions: read-out: MIC
Experimental: as §1

Bacillus subtilis = assay: MIC, dilution method in liquid media, Bacillus subtilis; assay type: cell-based
Experimental: as §1

[11] = tested on: Escherichia Coli (T) 0 26 B 6; assay: MIC, dilution method in liquid media, Escherichia Coli (T) 026 B6; assay type: cell-based
Experimental: as §1

[12] = tested on: staphylococcus aureus 54,146; assay: In vivo activity, experimental staphylococcia in mice; conditions: for Mice living after 8th day: subcutaneous, 1, 5 and 24 hours after infection
Experimental: The antibacterial activity of the compound of Example 2 was determined against experimental staphylococcia in mice. Lots of 10 male mice weighing about 21.5 g were infected by intraperitoneal injection of 0.5 ml of a 24 hour culture of staphylococcus aureus 54,146 in Pasteur nutritive broth diluted by 1/5 with distilled water. The test product was administered subcutaneously 1 hour, 5 hours and 24 hours after the infection in different doses.

[13] = tested on: Escherichia Coli (T) 026B6; assay: Experimental infection with Escherichia Coli (T) 026B6 in mice; assay type: in vivo; conditions: for Mice living on 8th day: subcutaneous, 1, 5 and 24 hours after infection, control 0/10
Experimental: Again, the activity of the product of Example 2 was tested against experimental infection of Escherichia Coli in mice. Groups of 10 male mice weighing about 23 g were infected with an intraperitoneal injection of 0.5 ml of a 24 hour culture in Pasteur nutritive media of Escherichia Coli (T) 026B6 diluted by 1/6 with distilled water. The test product was administered subcutaneously one hour, five hours and 24 hours after the infection and the mortality was determined during 8 days.

[14] = tested on: Proteus mirabilis No. A 235; assay: In vivo activity, experimental infection of Proteus mirabilis in mice; conditions: for Mice living on 8th day: subcutaneous, 1, 5 and 24 hours after infection, controls 0/10; for Mortality after 21 h 15: subcutaneous, number of dead of 10 mice, controls 10
Experimental: The product of Example 2 was studied for its effect on an experimental infection of Proteus mirabilis in mice. Groups of 10 male mice weighing about 22.5 g were infected by an intraperitoneal injection of 0.5 ml of a 24 hour culture in Pasteur nutritive media of Proteus mirabilis No. A 235 diluted by 1/4 with distilled water.
The mice received a subcutaneous injection 1 hour, 5 hours and 24 hours after the infection of a quantity of the product of Example 2 and the mortality was noted during 8 days.

[15] = tested on: Streptococcus hemolyticus; assay: MIC, dilution method in liquid media, Streptococcus hemolyticus; assay type: cell-based; conditions: Streptococcus pyogenes
Experimental: as §1

[16] = Enterococcus faecalis, 5432, 24 h, read-out: MIC
[17] = Staphylococcus aureus, 54146, 24 h
[18] = Staphylococcus aureus, 54146, 48 h
[19] = Klebsiella pneumoniae, 52145, 24 h
[20] = Klebsiella pneumoniae, 52145, 48 h
[21] = 0.1 mg in each injection, subcutaneous, number of dead of 10 mice
[22] = 0.25 mg in each injection, subcutaneous, number of dead of 10 mice
[23] = 0.5 mg in each injection, subcutaneous, number of dead of 10 mice

Nc1nc(CC(=O)NC2C(=O)N3C(C(=O)O)=C(CSC(=O)c4csc(=O)[nH]4)CSC23)cs1 (centres unmarked) [Example 4, 7-[2-(2-amino-4-thiazolyl)-acetamido]-3-[{(2-oxo-(3H)-thiazolin-4-yl)-carbonyl}-thiomethyl]-ceph-3-eme-4-carboxylic acid]
MIC [1, 16]: 10 µg/mL (≈ 19.5 µM) | MIC ([1]; Enterococcus faecalis, 5432, 48 h): > 40 µg/mL | MIC ([2]; 24 H, A 235, read-out: MIC): 0.6 µg/mL (≈ 1.17 µM) | MIC ([2]; 48 H, A 235, read-out: MIC): 0.6 µg/mL (≈ 1.17 µM) | MIC ([3]; A561, 24 h): 0.1 µg/mL (≈ 0.195 µM) | MIC ([3]; A561, 48 h): 0.2 µg/mL (≈ 0.389 µM) | MIC ([4]; UC1, 24 h): 2 µg/mL (≈ 3.89 µM) | MIC ([4]; UC1, 48 h): 2 µg/mL (≈ 3.89 µM) | MIC [5, 17]: 0.5 µg/mL (≈ 0.974 µM) | MIC [5, 18]: 1 µg/mL (≈ 1.95 µM) | MIC ([6]; UC1, 24 h, read-out: MIC): 1 µg/mL (≈ 1.95 µM) | MIC ([6]; UC1, 48 h, read-out: MIC): 1 µg/mL (≈ 1.95 µM) | MIC ([7]; UC1128, 24 H): 1 µg/mL (≈ 1.95 µM) | MIC ([7]; UC1128, 48 H): 1 µg/mL (≈ 1.95 µM) | MIC ([8]; 24 h): 5 µg/mL (≈ 9.74 µM) | MIC ([8]; 48 h, read-out: MIC): 10 µg/mL (≈ 19.5 µM) | MIC (Salmonella Typhimurium; 24 H): 3 µg/mL (≈ 5.84 µM) | MIC (Salmonella Typhimurium; 48 H): 3 µg/mL (≈ 5.84 µM) | MIC ([9]; UC1, 24 H, penicillin sensible): 0.2 µg/mL (≈ 0.389 µM) | MIC ([9]; UC1, 48 H, penicillin sensible): 0.5 µg/mL (≈ 0.974 µM) | MIC [10, 19]: 0.1 µg/mL (≈ 0.195 µM) | MIC [10, 20]: 0.2 µg/mL (≈ 0.389 µM) | MIC (Bacillus subtilis; 24 h, read-out: MIC): 0.1 µg/mL (≈ 0.195 µM) | MIC (Bacillus subtilis; 48 h): 0.1 µg/mL (≈ 0.195 µM) | MIC ([11]; 24 h): 2 µg/mL (≈ 3.89 µM) | MIC ([11]; 48 h): 3 µg/mL (≈ 5.84 µM)

CC(=O)SCC1=C(C(=O)O)N2C(=O)C(NC(=O)Cc3csc(N)n3)[C@H]2SC1 (some centres unmarked) [Example 2, 7-[2-(2-amino-4-thiazolyl)-acetamido]-3-acetylthiomethyl-ceph-3-eme-4-carboxylic acid]
MIC [1, 16]: 5 µg/mL (≈ 11.7 µM) | MIC ([1]; Enterococcus faecalis, 5432, 48 h, read-out: MIC): > 40 µg/mL | Mice living after 8th day ([12]; 0.1 mg in each injection): 0/10 | Mortality after 9 h 45 [12, 21]: 1 | Mortality after 22 h 30 [12, 21]: 8 | Mortality after 29 h [12, 21]: 1 | Mice living after 8th day ([12]; 0.25 mg in each injection): 6/10 | Mortality after 22 h 30 [12, 22]: 1 | Mortality after 25 h 30 [12, 22]: 1 | Mortality after 4 d [12, 22]: 1 | Mortality after 5 d [12, 22]: 1 | Mice living after 8th day ([12]; 0.5 mg in each injection): 9/10 | Mortality after 4 d [12, 23]: 1 | Mice living after 8th day ([12]; 0.75 mg in each injection): 10/10 | Mice living after 8th day ([12]; 1 mg in each injection): 10/10 | MIC ([2]; 24 h, read-out: MIC): 1 µg/mL (≈ 2.33 µM) | MIC ([2]; 48 h, read-out: MIC): 1 µg/mL (≈ 2.33 µM) | MIC ([4]; UC1, 24 h, read-out: MIC): 2 µg/mL (≈ 4.67 µM) | MIC ([4]; UC1, 48 h, read-out: MIC): 5 µg/mL (≈ 11.7 µM) | MIC [5, 17]: 0.6 µg/mL (≈ 1.4 µM) | MIC [5, 18]: 0.6 µg/mL (≈ 1.4 µM) | MIC ([6]; UC1, 24 h): 1 µg/mL (≈ 2.33 µM) | MIC ([6]; UC1, 48 h): 1 µg/mL (≈ 2.33 µM) | MIC ([7]; UC1128, 24 H): 1 µg/mL (≈ 2.33 µM) | MIC ([7]; UC1128, 48 H): 1 µg/mL (≈ 2.33 µM) | MIC ([9]; 24 H, Staphylococcus Oxford UC 1061, penicillin sensible): 0.5 µg/mL (≈ 1.17 µM) | MIC ([9]; 48 H, Staphylococcus Oxford UC 1061, penicillin sensible): 0.5 µg/mL (≈ 1.17 µM) | MIC [10, 19]: 0.5 µg/mL (≈ 1.17 µM) | MIC [10, 20]: 0.5 µg/mL (≈ 1.17 µM) | Mice living on 8th day ([13]; 0.5 mg in each injection): 0/10 | Mortality at 21 h 15 [13, 23]: 6 | Mortality at 24 h 15 [13, 23]: 1 | Mortality at 27 h 45 [13, 23]: 1 | Mortality at 45 h 30 [13, 23]: 1 | Mortality at 70 h [13, 23]: 1 | Mice living on 8th day ([13]; 1 mg in each injection): 9/10 | Mortality at 30 h 45 ([13]; 1 mg in each injection, subcutaneous, number of dead of 10 mice): 1 | MIC (Bacillus subtilis; 24 h, read-out: MIC): 0.1 µg/mL (≈ 0.233 µM) | MIC (Bacillus subtilis; 48 h, read-out: MIC): 0.5 µg/mL (≈ 1.17 µM) | MIC ([11]; 24 h): 3 µg/mL (≈ 7 µM) | MIC ([11]; 48 h): 3 µg/mL (≈ 7 µM) | Mice living on 8th day ([14]; 0.1 mg in each injection): 8/10 | Mortality after 21 h 15 ([14]; 0.1 mg in each injection): 2 | Mice living on 8th day ([14]; 0.25 mg in each injection): 10/10 | Mortality after 21 h 15 ([14]; 0.25 mg in each injection): 0 | Mice living on 8th day ([14]; 0.5 mg in each injection): 10/10 | Mortality after 21 h 15 ([14]; 0.5 mg in each injection): 0 | Mice living on 8th day ([14]; 0.75 mg in each injection): 10/10 | Mortality after 21 h 15 ([14]; 0.75 mg in each injection): 0 | MIC ([15]; 24 h): 0.05 µg/mL (≈ 0.117 µM) | MIC ([15]; 48 H, in bacto Todd Hewitt Broth pH = 7.8, read-out: MIC): 0.1 µg/mL (≈ 0.233 µM)
